Test results: ChEMBL document CHEMBL5712921, “Unlocking the Recovery Potential: JMJD3 Inhibition-Mediated SAPK/JNK Signaling Inactivation Supports Endogenous Oligodendrocyte-Lineage Commitment Post Mammalian Spinal Cord Injury” (Neurochem Res, 2021)
Calls of active or inactive are those of the source.

Legend:
[1] = target: Lysine-specific demethylase 6B (Mus musculus) (UniProt Q5NCY0); test: Inhibition of JMJD3 in mouse C17.2 cells at 20 uM for 3 hrs; format: cell-based
[2] = target: Lysine-specific demethylase 6B (Mus musculus) (UniProt Q5NCY0); test: […] of JMJD3 in mouse C17.2 cells at 10 uM for 3 hrs; format: cell-based
Mus musculus [3] = test: In vivo inhibition of JMJD3 in SCI mouse model assessed as upregulation of Olig2 expression administered at 100 mg/kg, ip for 5 days followed by subcutaneous administration for 7 days by immunoblot analysis; format: functional, organism-based; conditions: time 12.0 day
[4] = target: Lysine-specific demethylase 6B (Mus musculus) (UniProt Q5NCY0); test: Inhibition of JMJD3 in mouse Neural Progenitor cell assessed as Olig2 expression at 10 uM by immunoblot analysis; format: cell-based
Mus musculus [5] = test: In vivo inhibition of JMJD3 in SCI mouse model assessed as upregulation of H3K27me3 expression administered at 100 mg/kg, ip for 5 days followed by subcutaneous administration for 7 days by immunoblot analysis; format: functional, organism-based; conditions: time 12.0 day
[6] = target: Lysine-specific demethylase 6B (Mus musculus) (UniProt Q5NCY0); test: Inhibition of JMJD3 in mouse C17.2 cell assessed as decreased number of GFAP positive cell at 10 uM by Hoechst staining analysis; format: cell-based
Mus musculus [7] = test: Remyelination activity of SCI mouse model assessed as olig2 positive tube like structure administered at 100 mg/kg, ip for 5 days followed by subcutaneous administration for 7 days by immunohistochemical analysis; conditions: time 12.0 day
[8] = target: Lysine-specific demethylase 6B (Mus musculus) (UniProt Q5NCY0); test: Inhibition of JMJD3 in mouse C17.2 cell assessed as increased number of olig2 positive cell at 10 uM by Hoechst staining analysis; format: cell-based
[9] = target: Lysine-specific demethylase 6B (Mus musculus) (UniProt Q5NCY0); test: Inhibition of JMJD3 in mouse Neural Progenitor cell assessed as enhanced Olig2 expression at 10 uM by immunofluorescent staining; format: cell-based
[10] = target: Lysine-specific demethylase 6B (Mus musculus) (UniProt Q5NCY0); test: Inhibition of JMJD3 in mouse C17.2 cell assessed as Olig2 expression at 10 uM by immunoblot analysis; format: cell-based
Mus musculus [11] = species on record: Mus musculus; test: […] of phosphorylated c-Jun at ser63 residue in SCI mouse model; format: functional, organism-based

Chain of Lysine-specific demethylase 6B (Mus musculus) (Q5NCY0 whole entry): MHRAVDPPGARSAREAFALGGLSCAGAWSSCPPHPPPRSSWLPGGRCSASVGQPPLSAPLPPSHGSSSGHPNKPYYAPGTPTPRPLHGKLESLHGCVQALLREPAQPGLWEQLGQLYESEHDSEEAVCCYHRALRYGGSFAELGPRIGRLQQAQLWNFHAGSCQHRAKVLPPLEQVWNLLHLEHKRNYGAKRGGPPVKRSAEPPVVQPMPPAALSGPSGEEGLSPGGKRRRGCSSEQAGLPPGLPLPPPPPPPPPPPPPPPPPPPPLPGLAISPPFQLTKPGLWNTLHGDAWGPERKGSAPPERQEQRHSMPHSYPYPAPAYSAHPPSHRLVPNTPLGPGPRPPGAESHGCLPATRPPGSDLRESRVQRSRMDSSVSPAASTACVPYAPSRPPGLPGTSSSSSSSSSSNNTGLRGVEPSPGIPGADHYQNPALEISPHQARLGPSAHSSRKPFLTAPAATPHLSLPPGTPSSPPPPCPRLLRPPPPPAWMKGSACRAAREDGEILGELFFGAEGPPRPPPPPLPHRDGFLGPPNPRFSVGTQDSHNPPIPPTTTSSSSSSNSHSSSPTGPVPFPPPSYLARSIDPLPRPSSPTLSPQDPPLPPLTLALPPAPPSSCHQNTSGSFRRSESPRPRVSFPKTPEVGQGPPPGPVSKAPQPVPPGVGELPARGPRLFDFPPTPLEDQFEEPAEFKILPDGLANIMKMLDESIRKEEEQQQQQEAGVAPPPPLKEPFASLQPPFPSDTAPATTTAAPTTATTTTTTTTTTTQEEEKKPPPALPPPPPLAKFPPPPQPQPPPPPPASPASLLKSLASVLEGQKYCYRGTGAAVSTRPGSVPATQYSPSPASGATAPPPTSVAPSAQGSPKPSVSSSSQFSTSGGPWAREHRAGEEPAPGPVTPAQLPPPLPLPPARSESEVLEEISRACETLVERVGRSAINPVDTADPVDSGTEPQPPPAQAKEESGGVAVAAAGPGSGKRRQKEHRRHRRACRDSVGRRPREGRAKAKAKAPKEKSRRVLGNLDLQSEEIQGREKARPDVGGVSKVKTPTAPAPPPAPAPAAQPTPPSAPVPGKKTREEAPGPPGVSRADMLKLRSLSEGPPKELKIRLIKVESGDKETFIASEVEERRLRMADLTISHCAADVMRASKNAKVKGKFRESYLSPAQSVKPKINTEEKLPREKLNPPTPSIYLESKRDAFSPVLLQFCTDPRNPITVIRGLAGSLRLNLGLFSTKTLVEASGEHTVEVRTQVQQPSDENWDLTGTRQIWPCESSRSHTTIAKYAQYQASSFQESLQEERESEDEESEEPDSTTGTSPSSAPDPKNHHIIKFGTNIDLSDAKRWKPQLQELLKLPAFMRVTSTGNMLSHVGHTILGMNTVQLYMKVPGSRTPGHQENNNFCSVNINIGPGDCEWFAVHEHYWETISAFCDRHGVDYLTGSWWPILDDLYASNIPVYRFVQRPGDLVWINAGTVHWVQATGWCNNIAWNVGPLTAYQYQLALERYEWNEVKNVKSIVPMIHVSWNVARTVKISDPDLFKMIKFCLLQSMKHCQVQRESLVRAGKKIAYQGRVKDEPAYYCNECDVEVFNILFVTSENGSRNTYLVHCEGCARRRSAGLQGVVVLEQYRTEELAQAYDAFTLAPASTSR

O=C1c2ccccc2-c2n[nH]c3cccc1c23
active: inhibition [1]

CC[C@]1(O)C[C@@H]2CN(CCc3c([nH]c4ccccc34)[C@@](C(=O)OC)(c3cc4c(cc3OC)N(C)[C@H]3[C@@](O)(C(=O)OC)[C@H](OC(C)=O)[C@]5(CC)C=CCN6CC[C@]43[C@@H]65)C2)C1
active: Activity [2]

CCOC(=O)CCNc1cc(N2CCc3ccccc3CC2)nc(-c2ccccn2)n1
active: inhibition (Mus musculus [3]) | inhibition [4] | inhibition (Mus musculus [5]) | inhibition [6] | Activity (Mus musculus [7]) | inhibition [8] | inhibition [9] | inhibition [10] | Activity (Mus musculus [11])
